Experimental data published in patent publication US9579314B2 (priority 2015, dated 2017).

What was measured:
[1] = biological target: Human M3 receptor (Homo sapiens, UniProt P20309); settings: read-out: M3 binding affinity
[2] = biological target: Human β2 adrenoceptor (Homo sapiens, UniProt P07550); settings: read-out: B2 binding affinity
Sequence of Human β2 adrenoceptor (P07550 whole entry): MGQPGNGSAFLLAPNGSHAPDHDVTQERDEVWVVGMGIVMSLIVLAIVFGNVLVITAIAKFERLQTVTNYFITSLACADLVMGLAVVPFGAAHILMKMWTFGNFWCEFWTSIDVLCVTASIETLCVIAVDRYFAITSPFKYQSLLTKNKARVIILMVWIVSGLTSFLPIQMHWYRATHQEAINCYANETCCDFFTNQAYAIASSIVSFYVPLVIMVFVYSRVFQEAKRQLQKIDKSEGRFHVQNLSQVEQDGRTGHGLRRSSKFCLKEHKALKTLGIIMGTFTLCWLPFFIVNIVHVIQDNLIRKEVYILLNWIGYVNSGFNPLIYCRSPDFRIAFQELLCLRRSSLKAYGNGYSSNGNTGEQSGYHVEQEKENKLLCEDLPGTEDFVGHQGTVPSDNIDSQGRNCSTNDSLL

Sequence of Human M3 receptor (P20309 whole entry): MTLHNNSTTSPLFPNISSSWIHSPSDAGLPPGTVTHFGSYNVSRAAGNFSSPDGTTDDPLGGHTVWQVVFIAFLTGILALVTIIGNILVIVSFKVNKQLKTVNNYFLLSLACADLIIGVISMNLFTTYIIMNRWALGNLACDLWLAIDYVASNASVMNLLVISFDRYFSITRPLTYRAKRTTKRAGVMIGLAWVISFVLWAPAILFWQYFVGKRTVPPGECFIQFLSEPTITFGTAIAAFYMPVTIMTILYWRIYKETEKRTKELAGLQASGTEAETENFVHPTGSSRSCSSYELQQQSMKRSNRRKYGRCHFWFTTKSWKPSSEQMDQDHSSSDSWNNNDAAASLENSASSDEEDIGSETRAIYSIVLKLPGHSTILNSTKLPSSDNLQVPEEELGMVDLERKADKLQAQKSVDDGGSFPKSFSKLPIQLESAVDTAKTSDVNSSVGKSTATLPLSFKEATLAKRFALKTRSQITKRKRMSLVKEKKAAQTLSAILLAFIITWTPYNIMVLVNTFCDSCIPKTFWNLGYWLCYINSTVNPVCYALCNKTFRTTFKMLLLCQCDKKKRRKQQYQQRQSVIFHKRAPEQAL

Row | SMILES | IC50 [1] [nM] | IC50 [2] [nM]
1 | O=C(COc1cccc([C@](O)(C(=O)OCC2CCN(Cc3ccccc3)CC2)c2ccccc2)c1)N[C@H]1C[C@H](NC(=O)c2ccc(CNC[C@H](O)c3ccc(O)c4[nH]c(=O)ccc34)c(F)c2)C1 [Compound 132, (1-benzylpiperidin-4-yl)methyl (S)-2-(3-(2-(((1R,3S)-3-(3-fluoro-4-((((R)-2-hydroxy-2-(8-hydroxy-2-oxo-1,2-dihydroquinolin-5-yl)ethyl)amino)methyl)benzamido)cyclobutyl)amino)-2-oxoethoxy)phenyl)-2-hydroxy-2-phenylacetate] | 0.3 to 3 | < 0.3
2 | O=C(NCC1CCN(C(=O)COc2cccc([C@](O)(C(=O)OCC3CCN(Cc4ccccc4)CC3)c3ccccc3)c2)CC1)c1ccc(CCNC[C@H](O)c2ccc(O)c3[nH]c(=O)ccc23)cc1 [Compound 89, (1-benzylpiperidin-4-yl)methyl (S)-2-hydroxy-2-(3-(2-(4-((4-(2-(((R)-2-hydroxy-2-(8-hydroxy-2-oxo-1,2-dihydroquinolin-5-yl)ethyl)amino)ethyl)benzamido)methyl)piperidin-1-yl)-2-oxoethoxy)phenyl)-2-phenylacetate] | 0.3 to 3 | < 0.3
3 | O=C(COc1cccc([C@](O)(C(=O)OCC2CCN(Cc3ccccc3)CC2)c2ccccc2)c1)N[C@H]1CC[C@H](NC(=O)c2ccc(CCNC[C@H](O)c3ccc(O)c4[nH]c(=O)ccc34)cc2)CC1 [Compound 90, (1-benzylpiperidin-4-yl)methyl (S)-2-hydroxy-2-(3-(2-(((1R,4S)-4-(4-(2-(((R)-2-hydroxy-2-(8-hydroxy-2-oxo-1,2-dihydroquinolin-5-yl)ethyl)amino)ethyl)benzamido)cyclohexyl)amino)-2-oxoethoxy)phenyl)-2-phenylacetate] | 0.3 to 3 | 0.3 to 3
4 | O=C(NCCCCNC[C@H](O)c1ccc(O)c2[nH]c(=O)ccc12)c1cccc(C(O)(C(=O)OCC2CCN(Cc3ccccc3)CC2)c2ccccc2)c1 (stereo partly drawn) [Compound 47, (1-benzylpiperidin-4-yl)methyl 2-hydroxy-2-(3-((4-(((R)-2-hydroxy-2-(8-hydroxy-2-oxo-1,2-dihydroquinolin-5-yl)ethyl)amino)butyl)carbamoyl)phenyl)-2-phenylacetate diformate] | 0.3 to 3 | < 0.3
5 | COc1cc(C(=O)NCCNC(=O)c2ccc(COc3cccc([C@](O)(C(=O)OCC4CCN(Cc5ccccc5)CC4)c4ccccc4)c3)cc2)ccc1CNC[C@H](O)c1ccc(O)c2[nH]c(=O)ccc12 [Compound 126, (1-benzylpiperidin-4-yl)methyl (S)-2-hydroxy-2-(3-((4-((2-(4-((((R)-2-hydroxy-2-(8-hydroxy-2-oxo-1,2-dihydroquinolin-5-yl)ethyl)amino)methyl)-3-methoxybenzamido)ethyl)carbamoyl)benzyl)oxy)phenyl)-2-phenylacetate] | 0.3 to 3 | 0.3 to 3
6 | O=C(NC1CCN(C(=O)COc2cccc([C@](O)(C(=O)OCC3CCN(Cc4ccccc4)CC3)c3ccccc3)c2)CC1)c1ccc(CCNC[C@H](O)c2ccc(O)c3[nH]c(=O)ccc23)cc1 [Compound 92, (1-benzylpiperidin-4-yl)methyl (S)-2-hydroxy-2-(3-(2-(4-(4-(2-(((R)-2-hydroxy-2-(8-hydroxy-2-oxo-1,2-dihydroquinolin-5-yl)ethyl)amino)ethyl)benzamido)piperidin-1-yl)-2-oxoethoxy)phenyl)-2-phenylacetate] | < 0.3 | < 0.3
7 | O=C(COc1cccc([C@](O)(C(=O)OCC2CCN(Cc3ccccc3)CC2)c2ccccc2)c1)N1CCC(CCNC[C@H](O)c2ccc(O)c3[nH]c(=O)ccc23)CC1 [Compound 36A, (1-benzylpiperidin-4-yl)methyl (S)-2-hydroxy-2-(3-(2-(4-(2-(((R)-2-hydroxy-2-(8-hydroxy-2-oxo-1,2-dihydroquinolin-5-yl)ethyl)amino)ethyl)piperidin-1-yl)-2-oxoethoxy)phenyl)-2-phenylacetate] | 0.3 to 3 | 0.3 to 3
8 | O=C(OCC1CCN(Cc2ccccc2)CC1)C(O)(c1cccc(OCCCCCNC[C@H](O)c2ccc(O)c3[nH]c(=O)ccc23)c1)C1CCCCC1 (stereo partly drawn) [Compound 10, (1-benzylpiperidin-4-yl)methyl 2-cyclohexyl-2-hydroxy-2-(3-((5-(((R)-2-hydroxy-2-(8-hydroxy-2-oxo-1,2-dihydroquinolin-5-yl)ethyl)amino)pentyl)oxy)phenyl)acetate] | 0.3 to 3 | 0.3 to 3
9 | O=C(c1ccc(CCNC[C@H](O)c2ccc(O)c3[nH]c(=O)ccc23)cc1)N1CCC(COc2cccc([C@](O)(C(=O)OCC3CCN(Cc4ccccc4)CC3)c3ccccc3)c2)CC1 [Compound 31, (S)-(1-Benzylpiperidin-4-yl)methyl 2-hydroxy-2-(3-((1-(4-(2-(((R)-2-hydroxy-2-(8-hydroxy-2-oxo-1,2-dihydroquinolin-5-yl)ethyl)amino)ethyl)benzoyl)piperidin-4-yl)methoxy)phenyl)-2-phenylacetate] | < 0.3 | < 0.3
10 | O=C(NCCCNC(=O)c1cccc(C(O)(C(=O)OCC2CCN(Cc3ccccc3)CC2)c2ccccc2)c1)c1ccc(CNC[C@H](O)c2ccc(O)c3[nH]c(=O)ccc23)cc1 (stereo partly drawn) [Compound 50, (1-benzylpiperidin-4-yl)methyl 2-hydroxy-2-(3-((3-(4-((((R)-2-hydroxy-2-(8-hydroxy-2-oxo-1,2-dihydroquinolin-5-yl)ethyl)amino)methyl)benzamido)propyl)-carbamoyl)phenyl)-2-phenylacetate diformate] | 0.3 to 3 | > 3
11 | O=C(NCCc1cccc(C(O)(C(=O)OCC2CCN(Cc3ccccc3)CC2)c2ccccc2)c1)c1ccc(CCNC[C@H](O)c2ccc(O)c3[nH]c(=O)ccc23)cc1 (stereo partly drawn) [Compound 40, (1-benzylpiperidin-4-yl)methyl 2-hydroxy-2-(3-(2-(4-(2-(((R)-2-hydroxy-2-(8-hydroxy-2-oxo-1,2-dihydroquinolin-5-yl)ethyl)amino)ethyl)benzamido)ethyl)phenyl)-2-phenylacetate] | 0.3 to 3 | 0.3 to 3
12 | O=C(NCCCOc1cccc([C@](O)(C(=O)OCC2CCN(Cc3ccccc3)CC2)c2ccccc2)c1)c1ccc(CNC[C@H](O)c2ccc(O)c3[nH]c(=O)ccc23)c(OC(F)(F)F)c1 [Compound 32E, (S)-(1-benzylpiperidin-4-yl)methyl 2-hydroxy-2-(3-(3-(4-((((R)-2-hydroxy-2-(8-hydroxy-2-oxo-1,2-dihydroquinolin-5-yl)ethyl)amino)methyl)-3-(trifluoromethoxy)benzamido)propoxy)phenyl)-2-phenylacetate] | 0.3 to 3 | 0.3 to 3
13 | O=C(N[C@H]1CCCN(C(=O)COc2cccc([C@](O)(C(=O)OCC3CCN(Cc4ccccc4)CC3)c3ccccc3)c2)C1)c1ccc(CCNC[C@H](O)c2ccc(O)c3[nH]c(=O)ccc23)cc1 [Compound 108, (1-benzylpiperidin-4-yl)methyl (S)-2-hydroxy-2-(3-(2-((S)-3-(4-(2-(((R)-2-hydroxy-2-(8-hydroxy-2-oxo-1,2-dihydroquinolin-5-yl)ethyl)amino)ethyl)benzamido)piperidin-1-yl)-2-oxoethoxy)phenyl)-2-phenylacetate] | 0.3 to 3 | 0.3 to 3
